Measured values as given in patent US5416073A, “Growth hormone-releasing peptides and method of treating animals, therewith” (The Adminstrators of the Tulane Educational Fund, priority 1985, dated 1995).

Legend:
Growth Hormone Release = experiment: Peptide effects on growth hormone release, plasma GH by RIA in anesthetized male rats; format: in vivo, rat; settings: 15 min
Method: In this evaluation, the procedures described by W. A. Murphy et al., Endocrinology 109:491-495 (1980), were employed.
In growth hormone (GH) experiments, male rats (Charles Rivers) were anesthetized with NEMBUTAL® (6 mg per 100 g body weight) which also served to maintain stimulated plasma GH levels. Exactly 30 minutes after the rats were anesthetized, 0.5 mL of saline or the test peptide in saline was administered as a SC bolus. A 1 mL blood sample was drawn from the jugular vein 15 minutes after the injection of the peptide in saline. GH levels were determined using NIADDKD rat GH RIA components.

dairy cows = experiment: Effect on milk production in dairy cows, treatments administered subcutaneously; format: in vivo; settings: for Milk Production: 10-day treatment period, mean, saline control 22.2; for % increase over control: milk production, vs saline control
Method: In this test, treatments are administered using a Latin Square design using four cows. Each treatment period is 10 days, and the interval between treatments is 4 days.
There is a pre-treatment period of one week, at the end of which each cow receives an indwelling jugular catheter. Catheters are flushed daily with heparinized (500-1000 IU/ml) sterile saline to help maintain potency and are replaced as needed.
The drugs are solubilized in sterile saline and injected subcutaneously each day with the dosage based on the cow's weight. Dosages range from 0.06 mg/kg animal/day to 60 mg/kg animal/day, preferably 0.10 mg/kg animal/day to 50 mg/kg/day.
On the first and last treatment days of each period, blood is collected at 15 minute intervals for 1 hour prior to and 11/2 hours after treatment; sampling continues at 30 minutes intervals for an additional 31/2 hours.
Milk samples are obtained on the evening proceeding each bleeding day, the morning of each bleeding day and combined (50% each).
Feed intake, refusals and milk production is monitored for all animals.
Results obtained are reported as mean milk production in kg/day for each treatment and compared against a saline control.

SMILES	Plasma GH (Growth Hormone Release; dose 0.08 μg/100 g BW SC, saline 454 ± 62)	Plasma GH (Growth Hormone Release; dose 0.20 μg/100 g BW SC, saline 454 ± 62)	Plasma GH (Growth Hormone Release; dose 0.50 μg/100 g BW SC, saline 454 ± 62)	Milk Production (dairy cows; 0.4 mg/kg/day SC)	Milk Production (dairy cows; 0.8 mg/kg/day SC)	% increase over control (dairy cows; 0.4 mg/kg/day SC)	% increase over control (dairy cows; 0.8 mg/kg/day SC)	Plasma GH (Growth Hormone Release; dose 1.20 μg/100 g BW SC, saline 342 ± 53)	Plasma GH (Growth Hormone Release; dose 3.0 μg/100 g BW SC, saline 342 ± 53)
CC[C@H](C)[C@H](NC(=O)[C@H](C)NC(=O)[C@H](CC(=O)O)NC(=O)[C@@H](C)NC(=O)[C@@H](N)Cc1ccc(O)cc1)C(=O)N[C@@H](Cc1ccccc1)C(=O)N[C@H](C(=O)N[C@@H](CC(N)=O)C(=O)N[C@@H](CO)C(=O)N[C@@H](Cc1ccc(O)cc1)C(=O)N[C@@H](CCCNC(=N)N)C(=O)N[C@@H](CCCCN)C(=O)N[C@H](C(=O)N[C@@H](CC(C)C)C(=O)NCC(=O)N[C@@H](CCC(N)=O)C(=O)N[C@@H](CC(C)C)C(=O)N[C@@H](CO)C(=O)N[C@@H](C)C(=O)N[C@@H](CCCNC(=N)N)C(=O)N[C@@H](CCCCN)C(=O)N[C@@H](CC(C)C)C(=O)N[C@@H](CC(C)C)C(=O)N[C@@H](CCC(N)=O)C(=O)N[C@@H](CC(=O)O)C(=O)N[C@H](C(=O)N[C@@H](CCSC)C(=O)N[C@@H](CO)C(=O)N[C@@H](CCCNC(=N)N)C(N)=O)[C@@H](C)CC)C(C)C)[C@@H](C)O [[D-Ala^2]-hpGRF(1-29)-NH2, D-alanine^2-human Pancreatic Growth Hormone-Releasing(1-29)-amide]	1118 ± 158 ng/mL	2122 ± 350 ng/mL	3539 ± 109 ng/mL	23.9 kg/day	23.8 kg/day	+7.6%	+7.2%	–	–
CC[C@H](C)[C@H](NC(=O)[C@H](C)NC(=O)[C@H](CC(=O)O)NC(=O)[C@H](C)NC(=O)[C@H](Cc1ccc(O)cc1)NC(C)=O)C(=O)N[C@@H](Cc1ccccc1)C(=O)N[C@H](C(=O)N[C@@H](CC(N)=O)C(=O)N[C@@H](CO)C(=O)N[C@@H](Cc1ccc(O)cc1)C(=O)N[C@@H](CCCNC(=N)N)C(=O)N[C@@H](CCCCN)C(=O)N[C@H](C(=O)N[C@@H](CC(C)C)C(=O)NCC(=O)N[C@@H](CCC(N)=O)C(=O)N[C@@H](CC(C)C)C(=O)N[C@@H](CO)C(=O)N[C@@H](C)C(=O)N[C@@H](CCCNC(=N)N)C(=O)N[C@@H](CCCCN)C(=O)N[C@@H](CC(C)C)C(=O)N[C@@H](CC(C)C)C(=O)N[C@@H](CCC(N)=O)C(=O)N[C@@H](CC(=O)O)C(=O)N[C@H](C(=O)N[C@@H](CCSC)C(=O)N[C@@H](CO)C(=O)N[C@@H](CCCNC(=N)N)C(N)=O)[C@@H](C)CC)C(C)C)[C@@H](C)O [N-Ac-hpGRF(1-29)-NH2, N-acetyl Human Pancreatic Growth Hormone-Releasing Factor(1-29)-Amide]	–	–	–	–	–	–	–	2518 ± 598 ng/mL	4899 ± 557 ng/mL
